Laboratory results: patent US20210161993A1, “Method for accelerated healing of burn wounds” (PVP LABS PTE. LTD., priority 2018, published 2021)
Peptide text beside a SMILES is read from it.

What was measured:
II-IIIA degree burns [1] = experiment: Burn model in rats, hexapeptide as topical 0.02-0.5% solution (Example 3); type: in vivo, outbred male rats; settings: for Day on which burn wound hyperaemia score reached 0: after thermal injury; for Day on which burn wound hyperaemia score reached 0 / Burn wound oedema score: topical; for Burn wound oedema score: score 0-3
Procedure: The efficacy of topical administration of tyrosyl-D-alanyl-glycyl-phenylalanyl-leucyl-arginine in the therapy of thermal burns was evaluated on models of II-IIIA degree burns in 30 outbred male rats. The animals were kept in a vivarium (ambient temperature 19-23° C.) according to Good Laboratory Practices of the Eurasian Economic Union and the applicable guidelines (Reference).
Flat-bottom glass containers of an appropriate diameter filled with liquid paraffin to ⅔ of their volume were used as the thermal agent. The containers were heated on a water bath before application to the skin of the rats, which were randomized to three groups (n=10 in each group): the control group and two experimental groups. Another tissue repair stimulator, dexpanthenol (5% topical ointment), was used as the comparator. All the rats received burns with a standardized area of ≈40 cm^2. Within 20 min. after inflicting the thermal injury, control group animals were treated by applying an aseptic dressing followed by therapy with Iodopiron and Levomecol (group I); animals in the experimental groups additionally received dexpanthenol (group II) or 0.02-0.5% solution of hexapeptide tyrosyl-D-alanyl-glycyl-phenylalanyl-leucyl-arginine (group III consisting of 5 animals that received 0.02% solution and 5 animals that received 0.5% solution).
The experiment involved evaluating the general condition of the animals and performing gross examination to evaluate the severity of tissue oedema in the burn region, hyperaemia, infiltration, appearance of wound discharge and wound epithelialization. These signs were scored as follows: maximum severity of a sign corresponded to a score of 3 points, and absence of a sign to a score of 0. Objective assessment of the healing process was based on planimetric measurements. All the observations were performed on days 1, 3, 5, 7 and 10 of the experiment.
The healing rate was determined using the formula V=(S1−S2)/t, where S1=wound area during the previous measurement, S2=wound area during the next measurement, t=number of days between the previous and the next measurement.
The experiment also included an evaluation of the white blood cell population as a ratio of the total number of lymphocytes to segmented cells in venous blood.

neutrophils = settings: cited from earlier work
3rd degree burn = settings: 0.3 mg subcutaneously; cited from earlier work
II-IIIA degree burns [2] = experiment: Burn model in rats, hexapeptide as 0.02% and 0.5% gel (Example 5); type: in vivo, outbred male rats; settings: for Average healing rate of burn wounds, difference to control Group I: FIG. 4; for Burn area (planimetry), dynamics of burn wound healing: vs control and Bepanthen
Procedure: The efficacy of topical administration of hexapeptide tyrosyl-D-alanyl-glycyl-phenylalanyl-leucyl-arginine in the therapy of thermal burns was evaluated on models of II-IIIA degree burns in 40 outbred male rats. The animals were kept in a vivarium according to Good Laboratory Practices of the Eurasian Economic Union and the applicable guidelines (Reference). Flat-bottom glass containers of an appropriate diameter filled with liquid paraffin to ⅔ of their volume were used as a thermal agent. The animals were randomized to four groups (n=10 in each group): Group I was the control group. A popular tissue repair product, Bepanthen (topical cream with 5% dexpanthenol), was used as the comparator. Burn area was standardized at Æ40 cm^2.
An aseptic dressing applied within the first 20 minutes after the burn, followed by therapy with Iodopiron and Levomecol, was used for control Group I. Group II was treated with Bepanthen. Group III received hexapeptide tyrosyl-D-alanyl-glycyl-phenylalanyl-leucyl-arginine as 0.02% topical gel, while Group IV received hexapeptide tyrosyl-D-alanyl-glycyl-phenylalanyl-leucyl-arginine as 0.5% topical gel.
In addition to monitoring the general condition of the animals on days 1, 3, 5, 7 and 10 of the experiment, the healing process was evaluated planimetrically. The healing rate was determined using the formula V=(S1-S2)/t, where S1=wound area during the previous measurement, S2=wound area during the next measurement, t=number of days between the previous and the next measurement.

burn injury = settings: intraperitoneal; during 14 days after burn injury; Dalargin 0.5 mg/kg; control 60%; cited from earlier work
linear wounds = experiment: Linear (planar) skin wound model in rats (Example 4); type: in vivo, white male Wistar rats
Procedure: The study was performed in white male Wistar rats. All the animals were randomized to three groups of 13 rats each: (I) control Group (untreated), (II) comparator Group (Bepanthen topical cream with 5% dexpanthenol) and (III) experimental Group (hexapeptide tyrosyl-D-alanyl-glycyl-phenylalanyl-leucyl-arginine). The Group III consisted of 5 animals that received 0.02% solution and 5 animals that received 0.5% solution.
Linear wounds were modeled by an approximately 4-cm-long longitudinal incision in the skin and subcutaneous fat along the midline of the back. After making the incision, the edges of the wound were brought together, and three sutures were applied at an equal distance. The animals received the study drugs starting on the day of the operation; the control Group received a placebo. In each group, 3 rats were intended for a tensometric study, which required euthanasia on day 7 of the experiment. Samples for a histological evaluation were collected immediately after complete healing (on days 25-26).
The study drugs were applied once daily, every day, for 20 days. The wound healing effect was evaluated based on the clinical course (presence of purulent discharge, dynamics of wound edge attachment) on days 4, 7, 15 and 20 of the experiment.

Molecule: CC(C)(CO)[C@@H](O)C(=O)NCCCO [Dexpanthenol, dexpanthenol]
- Day on which burn wound hyperaemia score reached 0 (II-IIIA degree burns [1]): 7 days
- Burn wound oedema score (II-IIIA degree burns [1]; day 1 after thermal injury): 2.0±0.5 points
- Burn wound oedema score (II-IIIA degree burns [1]; day 5 after thermal injury): 0.7±0.5 points
- Burn wound oedema score (II-IIIA degree burns [1]; day 7 after thermal injury): 0.3±0.3 points

Molecule: CC(C)C[C@H](NC(=O)[C@H](Cc1ccccc1)NC(=O)CNC(=O)[C@@H](C)NC(=O)[C@@H](N)Cc1ccc(O)cc1)C(=O)N[C@@H](CCCNC(=N)N)C(=O)O [tyrosyl-D-alanyl-glycyl-phenylalanyl-leucyl-arginine] (HELM PEPTIDE1{Y.[dA].G.F.L.R}$$$$V2.0)
- Effect on activated neutrophils and NADPHase activity (neutrophils; blood of healthy humans (n=27)): increasing the total number of activated neutrophils and NADPHase activity
- Effect on functional and metabolic activity of neutrophils (neutrophils; peripheral blood samples of burn patients (n=15)): normalized elevated functional and metabolic activity of neutrophils
- Skin repair and productive inflammation (3rd degree burn): significant acceleration of skin repair and reduced intensity of productive inflammation
- Average healing rate of burn wounds, difference to control Group I (II-IIIA degree burns [2]; 0.02% topical gel (Group III)): Statistically significant differences
- Burn area (planimetry), dynamics of burn wound healing (II-IIIA degree burns [2]; 0.02% topical gel (Group III)): pronounced statistically significant positive dynamics of burn wound healing
- Average healing rate of burn wounds, difference to control Group I (II-IIIA degree burns [2]; 0.5% topical gel (Group IV)): Statistically significant differences
- Burn area (planimetry), dynamics of burn wound healing (II-IIIA degree burns [2]; 0.5% topical gel (Group IV)): pronounced statistically significant positive dynamics of burn wound healing
- Reduction of burn area, 0.5% gel (Group IV) relative to 0.02% gel (Group III) (II-IIIA degree burns [2]; not statistically significant): numerically greater reduction of burn area
- Mortality rate (burn injury): 75%
- Tensiometric evaluation, superiority relative to control Group I (linear wounds; day 7 of the experiment): over than twofold
- Healing of the linear wound (visual inspection) (linear wounds; once daily for 20 days, relative to control and comparator, FIG. 3): more rapid healing of the linear wound
- Histological evaluation of the scar (linear wounds; samples collected after complete healing (days 25-26)): fibrous components were dominant in scar tissue relative to cellular components
- Day on which burn wound hyperaemia score reached 0 (II-IIIA degree burns [1]): 5 days
- Burn wound oedema score (II-IIIA degree burns [1]; day 1 after thermal injury): 1.0±0.4 points
- Burn wound oedema score (II-IIIA degree burns [1]; day 5 after thermal injury): 0.3±0.2 points
- Burn wound oedema score (II-IIIA degree burns [1]; day 7 after thermal injury): 0.0±0.0 points
- Reduction of hyperaemia compared with Dexpanthenol (II-IIIA degree burns [1]; topical 0.02-0.5% solution): statistically significantly more effective
- Average healing rate of burn wounds, difference to control Group I (II-IIIA degree burns [1]; topical 0.02-0.5% solution, FIG. 1): Statistically significant differences
- Burn area (planimetry), dynamics of burn wound healing (II-IIIA degree burns [1]; topical 0.02-0.5% solution, vs control and Dexpanthenol): significant reduction of burn area already on day 3
- Day on which lymphocyte-neutrophil ratio returned to normal (II-IIIA degree burns [1]; venous blood, topical 0.02-0.5% solution, FIG. 2): 7 days

Molecule: delta sleep-inducing peptide [DSIP]
- Mortality rate (burn injury): 20%
